Experimental findings from patent US9670190B2, “Pyridinyl and pyrimidinyl sulfonamide derivatives as chemokine receptor modulators” (Allergan, Inc., priority 2013, dated 2017) are described below.

In the experiment the target is T1, CCR2 (Homo sapiens, UniProt P41597).
T1 construct: expressed in transfected cells
As to the kind of experiment: CCR2 calcium activity assay (FLIPR Tetra) in HEK-Gqi5 cells stably expressing CCR2. The format is cell-based. The note with it: calcium activity on FLIPR Tetra, chemokine positive control agonist; for IC50: read-out: IC50 (nM), activity at CCR2 receptor. The procedure:
HEK-Gqi5 cells stably expressing CCR2 were cultured in DMEM high glucose, 10% FBS, 1% PSA, 400 μg/ml geneticin and 50 μg/ml hygromycin. Appropriate positive control chemokines (MCP-1, MIP1A or RANTES) was used as the positive control agonist for screening compound-induced calcium activity assayed on the FLIPR^Tetra. The drug plates were prepared in 384-well microplates using the EP3 and the MultiPROBE robotic liquid handling systems. Compounds were synthesized and tested for CCR2 activity.

T1 sequence (P41597 whole entry, species assumed): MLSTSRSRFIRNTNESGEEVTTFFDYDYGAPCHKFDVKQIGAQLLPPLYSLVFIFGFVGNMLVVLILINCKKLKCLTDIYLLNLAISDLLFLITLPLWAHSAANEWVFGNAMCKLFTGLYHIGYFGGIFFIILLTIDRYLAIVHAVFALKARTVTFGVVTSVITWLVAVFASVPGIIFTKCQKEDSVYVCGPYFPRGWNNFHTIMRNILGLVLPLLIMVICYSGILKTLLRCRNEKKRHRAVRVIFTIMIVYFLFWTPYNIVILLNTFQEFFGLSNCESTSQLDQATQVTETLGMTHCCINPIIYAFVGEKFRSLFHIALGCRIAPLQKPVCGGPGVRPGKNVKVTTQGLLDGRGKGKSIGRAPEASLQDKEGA

For `O=S(=O)(Cc1ccccc1)c1cnccc1NS(=O)(=O)c1cc2ccccc2o1` [Compound 6, N-[3-(benzylsulfonyl)pyridin-4-yl]-1-benzofuran-2-sulfonamide], the “% ANTAGONISM” value is 95% and the IC50 (in general, the concentration needed to halve the response being measured) amounted to 17 nM.

Take `O=S(=O)(Nc1cc(Cl)cnc1SCc1ccccc1)c1ccc(Cl)c(Cl)c1` [Compound 7, N-[2-(benzylsulfanyl)-5-chloropyridin-3-yl]-3,4-dichlorobenzenesulfonamide]: the “% ANTAGONISM” value is given as 46%. As for `O=S(=O)(Cc1ccccc1)c1ncc(Cl)cc1NS(=O)(=O)c1ccc(Cl)s1` [Compound 11, N-[2-(benzylsulfonyl)-5-chloropyridin-3-yl]-5-chlorothiophene-2-sulfonamide], the “% ANTAGONISM” value was determined as 89% and the IC50 was determined as 263 nM.

Turning to `O=S(=O)(Nc1ccncc1SCc1ccccc1)c1cc2ccccc2o1` [Compound 4, N-[3-(benzylsulfanyl)pyridin-4-yl]-1-benzofuran-2-sulfonamide], the “% ANTAGONISM” value turned out to be 100% and the IC50 was found to be 485 nM. The like results for `O=S(=O)(Nc1cc[n+]([O-])cc1SCc1ccccc1)c1cc2ccccc2o1` [Compound 5, N-[3-(benzylsulfanyl)-1-oxidopyridin-4-yl]-1-benzofuran-2-sulfonamide] were, in that order, 94% and 8 nM. Taken in the same sequence, the figures for `O=S(=O)(Cc1ccccc1)c1ncncc1NS(=O)(=O)c1cc2ccccc2o1` [Compound 2, N-[4-(benzylsulfonyl)pyrimidin-5-yl]-1-benzofuran-2-sulfonamide] were 101% and 135 nM. The like results for `O=S(=O)(Nc1cc(Cl)cnc1[S+]([O-])Cc1ccccc1)c1ccc(Cl)c(Cl)c1` (centres unmarked) [Compound 10, N-[2-(benzylsulfinyl)-5-chloropyridin-3-yl]-3,4-dichlorobenzenesulfonamide] were, in that order, 87% and 119 nM. For the compound `O=S(=O)(Cc1ccccc1)c1ncc(Cl)cc1NS(=O)(=O)c1ccc(Cl)c(Cl)c1` [Compound 9, N-[2-(benzylsulfonyl)-5-chloropyridin-3-yl]-3,4-dichlorobenzenesulfonamide], the “% ANTAGONISM” value is on record as 97% and the half-inhibitory concentration (IC50) was determined as 37 nM.

Take `O=S(=O)(Nc1cncnc1SCc1ccccc1)c1cc2ccccc2o1` [Compound 1, N-[4-(benzylsulfanyl)pyrimidin-5-yl]-1-benzofuran-2-sulfonamide]: the “% ANTAGONISM” value was 44%. With `O=S(=O)(Nc1cncnc1[S+]([O-])Cc1ccccc1)c1cc2ccccc2o1` (centres unmarked) [Compound 3, N-[4-(benzylsulfinyl)pyrimidin-5-yl]-1-benzofuran-2-sulfonamide], the “% ANTAGONISM” value is given as 95% and the IC50 turned out to be 588 nM. For the compound `O=S(=O)(Nc1cc(Cl)cnc1[S+]([O-])Cc1ccccc1)c1ccc(Cl)s1` (centres unmarked) [Compound 12, N-[2-(benzylsulfinyl)-5-chloropyridin-3-yl]-5-chlorothiophene-2-sulfonamide], the “% ANTAGONISM” value is 77%. Still for that read-out and setting: with `O=S(=O)(Nc1cc(Cl)cnc1SCc1ccccc1)c1ccc(Cl)s1` [Compound 8, N-[2-(benzylsulfanyl)-5-chloropyridin-3-yl]-5-chlorothiophene-2-sulfonamide] the figure was 60%.
